In data set [1] the test system is oligonucleotide duplexes. The data set can be described thus: Tm values and thermodynamic parameters of duplex formation (absorbance vs. temperature melting curves). The class given is binding. Conditions: for Tm / ΔG / ΔH / ΔS: 10 mM Na-cacodylate, 100 mM NaCl, 10 mM MgCl2, pH 7; for Tm: 5 μM single strand concentration; for ΔG: duplex formation (ΔG°298); for ΔG / ΔH / ΔS: 5 μM single strand, MeltWin 3.0; for ΔH / ΔS: duplex formation. The protocol: Determination of melting curves and thermodynamics: Absorbance vs. temperature profiles were measured on Cary 1 or 1E spectrophotometers (Varian, Australia) with a Cary thermoelectrical controller. […] 3.0. Circular dichroism (CD) spectra were recorded on a Jasco 600 (Jasco, Japan) spectropolarimeter, a thermostatically controlled bath (Lauda RCS-6) in a 1-cm cuvette.

Data set [2] has as its system natural nucleobases. Conditions: cited from earlier work.

The values that follow come from patent US20070015725A1, “2-azapurine compounds and their uses” (Roche Diagnostics, GMBH, priority 1999, published 2007).

In the oligonucleotide strings, read from the 5' end, every base follows the letter of its sugar. An asterisk marks phosphorothioate; unmarked linkages are phosphodiester. Other units and linkages are bracketed, terminal groups are in braces. A string of capitals states the bases alone. [z2A] = 2-aza-2'-deoxyadenosine; d = 2'-deoxy (DNA)

Broadly, the Tm is the temperature at the midpoint of the melting transition. What is called melting point is the temperature, or range, at which the solid turns liquid.

Turning to “5′-d(TAGGTCAATACT) 3′-d(ATCCAGGGATGA): unmodified duplex SEQ ID NO: 1 with SEQ ID NO: 8; two dA-dG mismatches (unmodified DNA) [reference compound]”, in data set [1], the Tm worked out at 36 °C, the ΔG is -7.4 kcal/mol, the ΔH is -47 kcal/mol and the ΔS is reported as −127 cal/K mol.

For `OC[C@H]1O[C@@H](N2CNc3c2nnn2ccnc32)C[C@@H]1O` [Compound 7, 3-(2-Deoxy-β-D-erythro-pentofuranosyl)-1H-diimidazo[1,2-c:4′,5′-e][1,2,3]-triazine], the melting point was 151 to 152 °C (dec.).

As to “5′-d(TAGGTC66TACT) 3′-d(ATCCAGCCATGA): duplex SEQ ID NO: 5 with SEQ ID NO: 7; 6: z^2Ad; two z^2Ad-dC pairs (chain 1 TAGGTCNNTACT; z2Ad modified nucleosides; modified_base (7)..(8) n = 2-Aza 2′-deoxyadenosine)”, in data set [1], the melting temperature (Tm) amounted to 20 °C, the ΔG is -5.5 kcal/mol, the ΔH is -41 kcal/mol and the ΔS is on record as −113 cal/K mol.

For the compound “5′-d(TAGGTCGGTACT) 3′-d(ATCCAGCCATGA): unmodified duplex SEQ ID NO: 9 with SEQ ID NO: 7; two G-C pairs (listed as DNA, chemistry not fully specified; one strand is listed 3' to 5') [reference compound]”, the Tm in data set [1] amounted to 54 °C.

`CCCCN(C=Nc1nnnc2c1ncn2[C@H]1C[C@H](O)[C@@H](CO)O1)CCCC` [Compound 9c, 7-(2-Deoxy-β-D-erythro-pentofuranosyl)-4-{[(di-n-butylamino)methylidene]-amino}-7H-imidazo[4,5-d][1,2,3]-triazine] had a melting point of 107 to 109 °C.

Consider “5′-d(TAGGTC66TACT) 3′-d(ATCCAGAAATGA): duplex SEQ ID NO: 5 with SEQ ID NO: 6; 6: z^2Ad; two z^2Ad-dA pairs (chain 1 TAGGTCNNTACT; z2Ad modified nucleosides; modified_base (7)..(8) n = 2-Aza 2′-deoxyadenosine)”, for which, in data set [1], the Tm was 25 °C, the ΔG is -5.7 kcal/mol, the ΔH is -49 kcal/mol and the ΔS is on record as −141 cal/K mol.

“5′-d(TAGGTC6ATACT) 3′-d(ATCCAGTTATGA): duplex SEQ ID NO: 3 with SEQ ID NO: 2; 6: z^2Ad; one z^2Ad-dT pair (chain 1 TAGGTCAATACT; chain 1: DNA, [z2A] at 7, backbone not given here; chain 2: unmodified DNA)”: in data set [1], the melting temperature (Tm) stood at 42 °C, the ΔG was -9.2 kcal/mol, the ΔH is -85 kcal/mol and the ΔS is given as −245 cal/K mol.

“5′-d(TAGGTC66TACT) 3′-d(ATCCAGTTATGA): duplex SEQ ID NO: 5 with SEQ ID NO: 2; 6: z^2Ad; two z^2Ad-dT pairs (chain 1 dTdAdGdGdTdCd[z2A]d[z2A]dTdAdCdT; chain 2: unmodified DNA)”: in data set [1], the melting temperature (Tm) came to 37 °C, the ΔG is -7.7 kcal/mol, the ΔH is -76 kcal/mol and the ΔS is reported as −219 cal/K mol.

Turning to “5′-d(TAGGTC6ATACT) 3′-d(ATCCAGGTATGA): duplex SEQ ID NO: 3 with SEQ ID NO: 4; 6: z^2Ad; one z^2Ad-dG pair (chain 1 dTdAdGdGdTdCd[z2A]dAdTdAdCdT; chain 2: unmodified DNA)”, in data set [1], the melting temperature (Tm) was determined as 46 °C, the ΔG is -9.9 kcal/mol, the ΔH was -83 kcal/mol and the ΔS is on record as −236 cal/K mol.

`Nc1nnnc2c1ncn2[C@H]1C[C@H](O)[C@@H](CO)O1` [Compound 2, 4-Amino-7-(2-deoxy-β-D-erythro-pentofuranosyl)-7H-imidazo[4,5-d][1,2,3]-triazine]: in data set [1], the “base pairing with 2′-deoxyguanosine (dG)” value is “specifically stable base pairs”; the “base pairing with dT, dC and dA” value was “much less stable base pairs”.

`O=c1[nH]nnc2c1ncn2[C@H]1C[C@H](O)[C@@H](CO)O1` [Compound 3, 7-(2-deoxy-β-D-erythro-pentofuranosyl)-7H-imidazo[4,5-d][1,2,3]-triazin-4-one]: in data set [2], the “stability of the base pair I^Az/G, less than the base pair A/T” value is reported as 9 ° and the “stability of the base pair I^Az/G, less than the regular base pair C/G” value is 13 °.

For “5′-d(TAGGTCAATACT) 3′-d(ATCCAGTTATGA): unmodified standard duplex, SEQ ID NO: 1 with SEQ ID NO: 2 (= SEQ ID NO: 10) (listed as DNA, chemistry not fully specified; one strand is listed 3' to 5') [reference compound]”, in data set [1], the Tm turned out to be 46 °C, the ΔG is -10.4 kcal/mol, the ΔH was -82 kcal/mol and the ΔS was −230 cal/K mol. Also, the Tm in data set [1] (listed as 5′-d(TAGGTCAATACT) 5′-d(AGTATTGACCTA)) amounted to 47 °C.

As for “5′-d(TAGGTC66TACT) 3′-d(ATCCAGGGATGA): duplex SEQ ID NO: 5 with SEQ ID NO: 8; 6: z^2Ad; two z^2Ad-dG pairs (chain 1 TAGGTCNNTACT; z2Ad modified nucleosides; modified_base (7)..(8) n = 2-Aza 2′-deoxyadenosine)”, in data set [1], the Tm came out at 46 °C, the ΔG was -10.1 kcal/mol, the ΔH was -74 kcal/mol and the ΔS is given as −206 cal/K mol.

In turn, `CC(C)CN(C=Nc1nnnc2c1ncn2[C@H]1C[C@H](O)[C@@H](CO)O1)CC(C)C` [Compound 9b, 7-(2-Deoxy-β-D-erythro-pentofuranosyl)-4-{[(di-isobutylamino)methylidene]-amino}-7H-imidazo[4,5-d][1,2,3]-triazine] yielded a melting point of 138 to 140 °C.
